Like-named read-outs stand apart in the source and are kept apart here.
How the values were obtained:
MCF-7 cells = assay: Alamar blue fluorescence viability (IC50), MCF-7; type: cell-based
Procedure: (§1) Cancer Cell Lines: Culturing Conditions and Validation. All cell lines were cultured at 37° C. with 5% CO2. All ERα-positive cell lines were grown in media lacking phenol red. MCF-7 were grown in EMEM with 10% FBS and 1% penicillin-streptomycin (P/S). T47D were cultured in MEM with 10% FBS and 1% P/S. TYS and TDG cells were grown in MEM supplemented with 10% CD-FBS and 1% P/S. HCT-116 and MDA-MB-231 cells were cultured in RPMI-1640 supplemented with 10% FBS and 1% P/S. MDA-MB-436 cells were cultured in DMEM supplemented with 10% FBS and 1% P/S. HT-29 were cultured in McCoy's media supplemented with 10% FBS and 1% P/S. All cell lines were used directly from ATCC stocks and/or have been further authenticated using PowerPlex16HS Assay (Promega) as described previously.^54 In short, >1 million cells were harvested and lysed using the cell lysis buffer (50 mM Tris, 50 mM EDTA, 25 mM sucrose, 100 mM NaCl, 1% SDS, pH 8). DNA extraction and short tandem repeats (STRs) profiling for each cell line were carried out at the University of Arizona Genetics Core (UAGC). Autosomal STR profiles were compared to reference databases such as ATCC, DSMZ, and JCRB.
(§2) Alamar Blue Fluorescence for Anticancer Activity (IC50). 2,000-15,000 cells per well were seeded a 96-well plate. Cells were allowed to adhere before DMSO stock solutions of test compounds were added to each well with a final concentration of DMSO in each well=1%; final volume: 100 μL. At the end of the desired incubation time (e.g., 24 or 72 hours), media in each well was aspirated and new fresh media (no compound, 100 μL) was added. Alamar blue solution (4 mg resazurin per 40 mL PBS) was then added (10 μL). After 2-6 hours incubation, each well's fluorescence (λexcit.=555 nm, λemission.=585 nm) was measured using a SpectraMax M3 plate reader (Molecular Devices). Percent dead was determined by comparison to a 100% dead control: 100 μM raptinal treated cells. Dose dependent curves and IC50 were calculated using Origin Pro V10.

HT-29 = assay: Alamar blue fluorescence viability (IC50), HT-29; type: cell-based; details: for Fold Change: Average Fold Change between 24/72 hr IC50 values for MCF-7 and HT-29; for IC50: HT-29, ERα negative
Procedure: as §1, §2

HCT-116 = assay: Alamar blue fluorescence viability (IC50), HCT-116; type: cell-based; details: for Fold Change: Average Fold Change between 24/72 hr IC50 values for MCF-7 and HCT-116; for IC50: HCT-116, ERα negative
Procedure: as §1, §2

MDA-MB-231 = assay: Alamar blue fluorescence viability (IC50), MDA-MB-231; type: cell-based; details: for Fold Change: Average Fold Change between 24/72 hr IC50 values for MCF-7 and MDA-MB-231; for IC50: MDA-MB-231, ERα negative
Procedure: as §1, §2

ERα− cancer cell lines = assay: Selectivity of cell killing, ERα+ versus ERα− cancer cell lines; type: cell-based; details: MDA-MB-231, HCT-116, HT-29; 24- and 72-hour incubations
Procedure: as §1, §2

[1] = Simulated gastric fluid (SGF) stability assay; type: in vitro ADME; details: 100 μM in SGF with pepsin
Procedure: Simulated Gastric Fluid (SGF) Stability Assay. SGF was prepared fresh by adding 3.2 g pepsin (Sigma Aldrich P7000) to 1000 mL of SGF (Fischer Scientific 7108-16) and the pH adjusted to 1.2 using a pH meter. This SGFwith pepsin solution was then warmed to 37° C. 990 μL of warmed SGFwith pepsin was then aliquoted into multiple Eppendorf tubes, followed by 10 μL of 10 mM DMSO stock solutions of test compounds. Erythromycin (MedChemExpress HY-B0220) is a positive control for this stability assay. Samples were incubated at 37° C. for the entire experiment with vortexing every 15 minutes. At each desired time point (0, 15, 30, 60, 120 minutes), a 100 μL aliquot is removed and quenched into 50 μL of acetonitrile. Samples are stored at 4° C. until all time points are complete. Samples were then vortexed and then clarified at 3,000 RPM for 10 minutes in a 4° C. centrifuge. Supernatants were collected and compound concentrations determined by LC-MS/MS (UIUC Metabolomics Center, Urbana, IL.). Determined compound concentrations were used to calculate percent remaining compared to t=0 samples.

[2] = Homo sapiens, MCF7, MCF-7 cells, 24 hours, Alamar blue, mean ± s.e.m., read-out: IC50
[3] = MCF-7, ERα positive, 24 hr, read-out: IC50 24 hr
[4] = MCF-7, ERα positive, 72 hr, read-out: IC50 72 hr

O=C1Nc2c(C(F)(F)F)cccc2C1(c1ccc(OC(F)(F)F)cc1)c1ccc(O)cc1F (centres unmarked) [Compound 7, 3-(2-fluoro-4-hydroxyphenyl)-3-(4-(trifluoromethoxy)phenyl)-7-(trifluoromethyl)indolin-2-one]
IC50 (MCF-7 cells; [2]): 177 nM

O=C1Nc2c(C(F)(F)F)cccc2C1(c1ccc(OC(F)(F)F)cc1)c1ccc(O)c(O)c1 (centres unmarked) [Compound 10, 3-(3,4-dihydroxyphenyl)-3-(4-(trifluoromethoxy)phenyl)-7-(trifluoromethyl)indolin-2-one]
IC50 (MCF-7 cells; [2]): 49 nM

O=C1Nc2c(C(F)(F)F)cccc2C1(c1ccc(O)cc1)N1CC(F)(F)C(F)(F)C1 (centres unmarked) [drawing 36]
Fold Change (HT-29): 3750
IC50 (HT-29; 24 hr, read-out: IC50 24 hr): 25000 ± 1000 nM
IC50 (HT-29; 72 hr, read-out: IC50 72 hr): 15000 ± 2000 nM
IC50 (MCF-7 cells; [3]): 5 ± 1 nM
IC50 (MCF-7 cells; [4]): 4 ± 1 nM
Fold Change (HCT-116): 3750
IC50 (HCT-116; 24 hr, read-out: IC50 24 hr): 24000 ± 2000 nM
IC50 (HCT-116; 72 hr, read-out: IC50 72 hr): 15000 ± 3000 nM
Fold Change (MDA-MB-231): 3500
IC50 (MDA-MB-231; 24 hr, read-out: IC50 24 hr): 22000 ± 2000 nM
IC50 (MDA-MB-231; 72 hr, read-out: IC50 72 hr): 14000 ± 1000 nM

O=C1Nc2c(C(F)(F)F)cccc2C1(c1ccc(O)cc1)N1CCCCCC1 (centres unmarked) [Compound 19, 3-(azepan-1-yl)-3-(4-hydroxyphenyl)-7-(trifluoromethyl)indolin-2-one]
IC50 (MCF-7 cells; [2]): > 1000 nM

O=C1Nc2c(C(F)(F)F)cccc2C1(c1ccc(OC(F)(F)F)cc1)c1ccc(OC(F)(F)F)cc1 [Compound 9, 3,3-bis(4-(trifluoromethoxy)phenyl)-7-(trifluoromethyl)indolin-2-one]
IC50 (MCF-7 cells; [2]): > 1000 nM
anticancer activity against MCF-7 cells (in words) (MCF-7 cells; MCF-7 cells): lack of activity

O=C1Nc2c(C(F)(F)F)cccc2C1(c1ccc(OC(F)(F)F)cc1)c1cc(F)c(O)c(F)c1 (centres unmarked) [Compound 6, 3-(3,5-difluoro-4-hydroxyphenyl)-3-(4-(trifluoromethoxy)phenyl)-7-(trifluoromethyl)indolin-2-one]
IC50 (MCF-7 cells; [2]): > 1000 nM
anticancer activity against MCF-7 cells (in words) (MCF-7 cells; MCF-7 cells): loss of activity

Cc1cc(C2(c3ccc(OC(F)(F)F)cc3)C(=O)Nc3c(C(F)(F)F)cccc32)cc(C)c1O (centres unmarked) [Compound 12, 3-(4-hydroxy-3,5-dimethylphenyl)-3-(4-(trifluoromethoxy)phenyl)-7-(trifluoromethyl)indolin-2-one]
IC50 (MCF-7 cells; [2]): > 1000 nM

O=C1Nc2c(C(F)(F)F)cccc2C1(c1ccc(O)cc1)N1CCOCC1 (centres unmarked) [Compound 18, 3-(4-hydroxyphenyl)-3-morpholino-7-(trifluoromethyl)indolin-2-one]
IC50 (MCF-7 cells; [2]): > 1000 nM

O=C1Nc2c(C(F)(F)F)cccc2[C@]1(c1ccc(O)cc1)N1CC(F)(F)C(F)(F)C1 [(S)-26, (S)-3-(4-hydroxyphenyl)-3-(3,3,4,4-tetrafluoropyrrolidin-1-yl)-7-(trifluoromethyl) indolin-2-one]
anticancer activity against MCF-7 cells (in words) (MCF-7 cells; MCF-7 cells): inactive

O=C1Nc2c(C(F)(F)F)cccc2C1(c1ccc(O)cc1)N1CCCC(F)(F)C1 (centres unmarked)
Fold Change (HT-29): 758
IC50 (HT-29; 24 hr, read-out: IC50 24 hr): 29000 ± 1000 nM
IC50 (HT-29; 72 hr, read-out: IC50 72 hr): 25000 ± 3000 nM
IC50 (MCF-7 cells; [3]): 39 ± 10 nM
IC50 (MCF-7 cells; [4]): 33 ± 1 nM
Fold Change (HCT-116): 636
IC50 (HCT-116; 24 hr, read-out: IC50 24 hr): 38000 ± 4000 nM
IC50 (HCT-116; 72 hr, read-out: IC50 72 hr): 21000 ± 4000 nM
Fold Change (MDA-MB-231): 667
IC50 (MDA-MB-231; 24 hr, read-out: IC50 24 hr): 49000 ± 4000 nM
IC50 (MDA-MB-231; 72 hr, read-out: IC50 72 hr): 22000 ± 1000 nM

O=C1Nc2c(C(F)(F)F)cccc2C1(c1ccc(O)cc1)N1CCC(O)CC1 (centres unmarked) [Compound 20, 3-(4-hydroxyphenyl)-3-(4-hydroxypiperidin-1-yl)-7-(trifluoromethyl)indolin-2-one]
IC50 (MCF-7 cells; [2]): > 1000 nM

O=C1Nc2c(C(F)(F)F)cccc2[C@@]1(c1ccc(O)cc1)N1CCC(F)CC1 [(R)-22, (R)-3-(4-fluoropiperidin-1-yl)-3-(4-hydroxyphenyl)-7-(trifluoromethyl)indolin-2-one]
anticancer activity against MCF-7 cells (in words) (MCF-7 cells; MCF-7 cells): lack of potent activity

O=C1Nc2c(C(F)(F)F)cccc2[C@@]1(c1ccc(O)cc1)N1CCC(F)(F)C1 [(R)-24, (R)-3-(3,3-difluoropyrrolidin-1-yl)-3-(4-hydroxyphenyl)-7-(trifluoromethyl)indolin-2-one]
potencies against ERα− cancer cell lines (in words) (ERα− cancer cell lines): double-digit micromolar
% Remaining after 120 min (SD) ([1]; 120 min): 20±1%
half-life at 100 μM ([1]; simulated gastric fluid with pepsin, pH 1.2, one-phase decay, read-out: t1/2 (min) (95% CI)): 62 min

O=C1Nc2c(C(F)(F)F)cccc2C1(c1ccc(O)cc1)N1CCCCC1 (centres unmarked) [Compound 16, 3-(4-hydroxyphenyl)-3-(piperidin-1-yl)-7-(trifluoromethyl)indolin-2-one]
IC50 (MCF-7 cells; [2]): > 1000 nM

CC(C)c1cc(C2(c3ccc(OC(F)(F)F)cc3)C(=O)Nc3c(C(F)(F)F)cccc32)cc(C(C)C)c1O (centres unmarked) [Compound 13, 3-(4-hydroxy-3,5-diisopropylphenyl)-3-(4-(trifluoromethoxy)phenyl)-7-(trifluoromethyl)indolin-2-one]
IC50 (MCF-7 cells; [2]): > 1000 nM

Cc1cc(C2(c3ccc(OC(F)(F)F)cc3)C(=O)Nc3c(C(F)(F)F)cccc32)ccc1O (centres unmarked) [Compound 11, 3-(4-hydroxy-3-methylphenyl)-3-(4-(trifluoromethoxy)phenyl)-7-(trifluoromethyl)indolin-2-one]
IC50 (MCF-7 cells; [2]): > 1000 nM

O=C1Nc2c(C(F)(F)F)cccc2C1(c1ccc(O)cc1)N1CC(F)(F)C(F)(F)C1 (centres unmarked) [drawing 37]
IC50 (MCF-7 cells; [3]): > 1000 nM
IC50 (MCF-7 cells; [4]): > 1000 nM

CC1CN(C2(c3ccc(O)cc3)C(=O)Nc3c(C(F)(F)F)cccc32)CCC1(F)F (centres unmarked) [Compound 17, 3-(4,4-difluoro-3-methylpiperidin-1-yl)-3-(4-hydroxyphenyl)-7-(trifluoromethyl)indolin-2-one]
IC50 (MCF-7 cells; [2]): 70 nM

O=C1Nc2c(C(F)(F)F)cccc2C1(c1ccc(O)cc1)N1CCC(F)(F)C1 (centres unmarked)
Fold Change (HT-29): 1364
IC50 (HT-29; 24 hr, read-out: IC50 24 hr): 35000 ± 6000 nM
IC50 (HT-29; 72 hr, read-out: IC50 72 hr): 30000 ± 5000 nM
IC50 (MCF-7 cells; [3]): 17 ± 1 nM
IC50 (MCF-7 cells; [4]): 22 ± 1 nM
Fold Change (HCT-116): 909
IC50 (HCT-116; 24 hr, read-out: IC50 24 hr): 45000 ± 5000 nM
IC50 (HCT-116; 72 hr, read-out: IC50 72 hr): 20000 ± 6000 nM
Fold Change (MDA-MB-231): 1455
IC50 (MDA-MB-231; 24 hr, read-out: IC50 24 hr): 51000 ± 5000 nM
IC50 (MDA-MB-231; 72 hr, read-out: IC50 72 hr): 32000 ± 3000 nM

O=C1Nc2c(C(F)(F)F)cccc2C1(c1ccc(OC(F)(F)F)cc1)c1c(F)cc(O)cc1F (centres unmarked) [Compound 8, 3-(2,6-difluoro-4-hydroxyphenyl)-3-(4-(trifluoromethoxy)phenyl)-7-(trifluoromethyl)indolin-2-one]
IC50 (MCF-7 cells; [2]): 549 nM

O=C1Nc2c(C(F)(F)F)cccc2C1(c1ccc(O)cc1)N1CCC(F)(F)CC1 (racemic) [Compound 2, 3-(4,4-difluoropiperidin-1-yl)-3-(4-hydroxyphenyl)-7-(trifluoromethyl)indolin-2-one]
IC50 (MCF-7 cells; [2]): 35 nM

O=C1Nc2c(C(F)(F)F)cccc2C1(c1ccc(OC(F)(F)F)cc1)c1ccc(O)c(F)c1 (centres unmarked) [Compound 5, 3-(3-fluoro-4-hydroxyphenyl)-3-(4-(trifluoromethoxy)phenyl)-7-(trifluoromethyl)indolin-2-one]
IC50 (MCF-7 cells; [2]): 33 nM

O=C1Nc2c(C(F)(F)F)cccc2C1(c1ccc(O)cc1)N1CC(F)(F)C1 (centres unmarked)
IC50 (MCF-7 cells; [4]): 117 ± 3 nM

O=C1Nc2c(C(F)(F)F)cccc2C1(c1ccc(O)cc1)N1CCC(OC(F)(F)F)CC1 (centres unmarked) [Compound 21, 3-(4-hydroxyphenyl)-3-(4-(trifluoromethoxy)piperidin-1-yl)-7-(trifluoromethyl)indolin-2-one]
IC50 (MCF-7 cells; [2]): 135 nM

— patent US12655104B2, “Anticancer compounds selective for ER-positive cancers” (THE BOARD OF TRUSTEES OF THE UNIVERSITY OF ILLINOIS, priority 2020, dated 2026)
